{
  "source": "patent US7179825B2",
  "about": "“Retinoic acid mimetic anilides” (Janssen Pharmaceutica N.V., priority 1997, dated 2007)",
  "data": [
    {"system": "Ovariectomized rats", "test": "Vaginal keratinization test on ovariectomized rats (Example C.2)", "type": "in vivo", "details": "Rattus norvegicus, po, estradiol undecylate induced keratinization, per os once daily on days 1-3, active dose = 50% of rats show complete suppression, read-out: LAD (lowest active dose)", "description": "(§1) The property to delay the metabolism of retinoic acid can be evidenced in various in vitro and in vivo experiments. A particular in vitro procedure is described in example C.1 and tests the inhibitory activity of the compounds of formula (I) on the metabolism of retinoic acid in human breast cancer cells. The compounds of the present invention were also effective in suppressing induced vaginal keratinization effects in ovariectomized rats as is described in example C.2.\n(§2) “Vaginal Keratinization Test on Ovariectomized Rats”\n(§3) Ovariectomized rats were injected subcutaneously with a sesame oil solution containing 100 μg of estradiol undecylate in a volume of 0.1 ml per 100 g body weight and control animals were injected with sesame oil. On day one, two and three, test animals were treated once daily with a per os dose of the test compound and control animals with the drug vehicle (PEG 200). One day after the last treatment, the animals were sacrificed and their vaginas were processed for histological evaluation according to the method described in J. Pharmacol. Exp. Ther. 261(2), 773–779 (1992). A dose at which 50% of the tested rats show complete suppression of the estradiol undecylate induced keratinization effects is defined as an active dose. Table 23 lists the lowest active dose (LAD in mg/kg) of the compounds of formula (I) which were tested.", "units": {"minimal effective dose": "mg/kg"}, "values": [
      {"smiles": "CCC(CC)C(c1ccc(NC(=O)C2CCNCC2)cc1)n1ccnc1.Cl", "note": "(racemic) [Compound 57, (±)-N-[4-[2-ethyl-1-(1H-imidazol-1-yl)butyl]-phenyl]4-piperidinecarboxamide monohydrochloride]", "minimal effective dose": "> 5"},
      {"smiles": "CCC(CC)C(c1ccc(NC(=O)CN2CCN(C)CC2)cc1)n1cncn1", "note": "(racemic) [Compound 15, (±)-N-[4-[2-ethyl-1-(1H-1,2,4-triazol-1-yl)butyl]phenyl]-4-methyl-1-piperazineacetamide]", "minimal effective dose": "> 2.5"}
    ]},
    {"system": "Ovariectomized rats", "test": "Vaginal keratinization test on ovariectomized rats (Example C.2)", "type": "in vivo", "details": "estradiol undecylate induced keratinization, per os once daily on days 1-3, active dose = 50% of rats show complete suppression", "description": "as §1, §2, §3", "units": {"LAD (lowest active dose)": "mg/kg"}, "values": [
      {"smiles": "CCN(CC)C(C)C(c1ccc(NC(=O)Cc2ccc(OC)c(OC)c2)cc1)n1ccnc1", "note": "(single isomer, unassigned) [Compound 387]", "LAD (lowest active dose)": ">2.50"},
      {"smiles": "COc1ccc(CC(=O)Nc2ccc(C(C(C)N(C)C)n3ccnc3)cc2)cc1OC", "note": "(single isomer, unassigned) [Compound 318]", "LAD (lowest active dose)": ">2.50"},
      {"smiles": "CC(C(c1ccc(NC(=O)Cc2ccc(Cl)cc2)cc1)n1cncn1)N(C)C", "note": "(single isomer, unassigned) [Compound 785]", "LAD (lowest active dose)": 5.00},
      {"smiles": "CN(C)CC(c1ccc(NC(=O)Cc2ccc(Cl)cc2)cc1)n1ccnc1", "note": "(racemic) [Compound 375]", "LAD (lowest active dose)": ">5.00"},
      {"smiles": "COc1ccc(CC(=O)Nc2ccc(C(C(C)CO)n3ccnc3)cc2)cc1OC", "note": "(racemic) [Compound 386, (±)-(A)-3,4-dimethoxy-N-[4-[1-(1H-imidazol-1-yl)-2-(hydroxymethyl)propyl]phenyl]benzeneacetamide]", "LAD (lowest active dose)": ">2.50"},
      {"smiles": "CC(C(c1ccc(NC(=O)Cc2ccc(Cl)cc2)cc1)n1cncn1)N(C)C", "note": "(single isomer, unassigned) [Compound 628]", "LAD (lowest active dose)": ">2.50"},
      {"smiles": "COc1ccc(NC(=O)Nc2ccc(C(CN(C)C)n3ccnc3)cc2)cc1OC", "note": "(racemic) [Compound 721]", "LAD (lowest active dose)": ">2.50"},
      {"smiles": "CC(C(c1ccc(NC(=O)N2CCN(C)CC2)cc1)n1ccnc1)N(C)C", "note": "(single isomer, unassigned) [Compound 347]", "LAD (lowest active dose)": ">5.00"},
      {"smiles": "CCOC(=O)CC(c1ccc(NC(=O)Cc2ccc(OC)c(OC)c2)cc1)n1ccnc1", "note": "(stereo not drawn) [Compound 395]", "LAD (lowest active dose)": ">5.00"},
      {"smiles": "CCCCOc1ccc(CC(=O)Nc2ccc(C(C(C)N(C)C)n3ccnc3)cc2)cc1", "note": "(single isomer, unassigned) [Compound 320]", "LAD (lowest active dose)": 5.00},
      {"smiles": "CNC(C)C(c1ccc(NC(=O)Cc2ccc(OC)c(OC)c2)cc1)n1ccnc1", "note": "(racemic) [Compound 400, (±)-(A)-3,4-dimethoxy-N-[4-[1-(1H-imidazol-1-yl)-2-(methylamino)propyl]phenyl]benzeneacetamide]", "LAD (lowest active dose)": ">2.50"},
      {"smiles": "COCC(c1ccc(NC(=O)Cc2ccc(OC)c(OC)c2)cc1)n1ccnc1", "note": "(racemic) [Compound 397]", "LAD (lowest active dose)": ">2.50"},
      {"smiles": "COc1cc(CC(=O)Nc2ccc(C(C(C)N(C)C)n3ccnc3)cc2)cc(OC)c1OC", "note": "(single isomer, unassigned) [Compound 428]", "LAD (lowest active dose)": ">2.50"},
      {"smiles": "COc1ccc(CC(=O)Nc2ccc(C(C(C)N3CCOCC3)n3ccnc3)cc2)cc1OC", "note": "(single isomer, unassigned) [Compound 409]", "LAD (lowest active dose)": 5.00},
      {"smiles": "CCCCCC(CC)C(c1ccc(NC(=O)C(C)=Cc2ccccc2)cc1)n1ccnc1", "note": "(single isomer, unassigned) [Compound 494]", "LAD (lowest active dose)": ">2.50"},
      {"smiles": "CC(C(c1ccc(NC(=O)CCN2CCN(C)CC2)cc1)n1ccnc1)N(C)C", "note": "(mixture of isomers) [Compound 354]", "LAD (lowest active dose)": ">5.00"},
      {"smiles": "COc1ccc(CC(=O)Nc2ccc(C(C(C)N3CCOCC3)n3ccnc3)cc2)cc1OC", "note": "(single isomer, unassigned) [Compound 408]", "LAD (lowest active dose)": ">5.00"},
      {"smiles": "CCN(CC)C(C)C(c1ccc(NC(C)=O)cc1)n1ccnc1", "note": "(single isomer, unassigned) [Compound 555]", "LAD (lowest active dose)": ">2.50"},
      {"smiles": "COc1ccc(C(=O)Nc2ccc(C(C(C)N(C)C)n3cncn3)cc2)cc1OC", "note": "(single isomer, unassigned) [Compound 327]", "LAD (lowest active dose)": ">2.50"}
    ]}
  ]
}
